# Experimental data as given in patent US20240409886A1, “CULTURE MEDIUM COMPRISING DIPEPTIDES” (Evonik Operations GmbH, priority 2017, published 2024).
# Residues, ends and D or L forms follow the SMILES beside them.
# Test system: antibody-producing Chinese Hamster Ovary (CHO) cell (subclone DG44)
# Test: product titer (antibody concentration at the end of the cultivation)
# Format: cell-based
# Conditions: for rel. product titer [-]: end of cultivation, t=18h, relative units
# Protocol: The effect of the Gln-Asn dipeptide on an antibody-producing Chinese Hamster Ovary (CHO) cell (subclone DG44; Life Technologies Corporation, Carlsbad, USA) was investigated using one-factor-at-a-time (OFAT) analysis.
# The analysis was based on a comparison of the viable cell density and cell viability in a series of cell cultures, which were conducted at substantially identical culturing conditions, however, with increasing amounts of the Gln-Asn dipeptide in the medium. In order to keep the total amounts of Asn and Gln units (molar basis) in the various culture media constant, the molar concentration of free glutamine and free asparagine was reduced in accordance with the molar amount of the dipeptide added. A series of culture media having increasing amounts of the Gln-Asn dipeptide was prepared by mixing varying amounts of a Base Medium (comprising free Asn and Gln) and a Test Medium (comprising Asn-Gln dipeptide). A commercially available defined cell culture medium (TC-42, TeutoCell AG, Bielefeld, Germany) served as the Base Medium. (Any other suitable cell culture medium could be used.) A Test Medium (TC-42-EVO) was prepared so as to have identical nutrient concentrations compared to the Base Medium, however, instead of free Asn the Test Medium contained an equimolar amount (5.4 mM) of Gin-Asn dipeptide. Furthermore, the free Gln concentration in the Test Medium was set to a value such that the total concentration of Gln units in the Test Medium (i.e., free Gln and dipeptide-Gln) matched the concentration of free Gln in the Base Medium. All other nutrient concentrations in the Test Medium were the same as in the Base Medium. The Base Medium contained 1461.5 mg/l free Gln and 612 mg/l free Asn.
# Six cell cultivations were then conducted with media containing varying amounts of the Test Medium and the Base Medium in the following proportions:
# All media were set to pH 8.3. Salinity of the culture media was set to 285 mOsmol/kg with NaCl. All cultivations were conducted in on a rotary shaker under identical culture conditions (temperature, humidity, rpm, CO2, etc.), using standard cell culture methods. Three passages of a cell culture are conducted and viable cell density (VCD; 10^6 viable cells/ml) and cell viability (%) was followed in duplicate determinations, using […] determination.
# Generally, an increased product titer is observed in all cultures including the Asn-containing dipeptide. In cultivations #2 and #3 (80% and 25% of the Asn present in form of the dipeptide, respectively) the product titer is more than 1.4-fold increased.
smiles,measurement,setting,value
"NC(=O)CC[C@H](N)C(=O)N[C@@H](CC(N)=O)C(=O)O [Gln-Asn, L-glutaminyl-L-asparagine] (H-Gln-Asn-OH)",rel. product titer [-],0.3 mM dipeptide (#5),1.01
same,rel. product titer [-],0.8 mM dipeptide (#4),1.11
same,rel. product titer [-],1.4 mM dipeptide (#3),1.42
same,rel. product titer [-],4.3 mM dipeptide (#2),1.41
same,rel. product titer [-],5.4 mM dipeptide (#1),1.19
same,product titer increase,"cultivation #2, 80% of the Asn present in form of the dipeptide",more than 1.4 fold
same,product titer increase,"cultivation #3, 25% of the Asn present in form of the dipeptide",more than 1.4 fold
same,product titer,"cultivations #1-#4, dipeptide 0.8 mM to 5.4 mM",Significantly improved
